{
  "source": "ChEMBL document CHEMBL3244355",
  "about": "“Quinolone antimicrobial agents. 2. Methylenedioxy positional isomers of oxolinic acid” (1979)",
  "key": {"[1]": {"system": "Pseudomonas aeruginosa", "experiment": "Antimicrobial activity against Pseudomonas aeruginosa BMH 1 assessed as growth inhibition by agar dilution-streak method", "format": "functional"}, "[2]": {"system": "Acinetobacter sp.", "experiment": "Antimicrobial activity against Acinetobacter sp. 2347 assessed as growth inhibition by agar dilution-streak method", "format": "functional"}, "[3]": {"system": "Proteus vulgaris", "experiment": "Antimicrobial activity against Proteus vulgaris ATCC 6897 assessed as growth inhibition by agar dilution-streak method", "format": "functional"}, "[4]": {"system": "Proteus mirabilis", "experiment": "Antimicrobial activity against Proteus mirabilis Finland 9 assessed as growth inhibition by agar dilution-streak method", "format": "functional"}, "[5]": {"system": "Escherichia coli", "experiment": "Antimicrobial activity against Escherichia coli ATCC 26 assessed as growth inhibition by agar dilution-streak method", "format": "functional"}, "[6]": {"system": "Shigella sonnei", "experiment": "Antimicrobial activity against Shigella sonnei ATCC 9290 assessed as growth inhibition by agar dilution-streak method", "format": "functional"}, "[7]": {"system": "Enterococcus faecalis", "experiment": "Antimicrobial activity against Streptococcus faecalis ATCC 8043 assessed as growth inhibition by agar dilution-streak method", "format": "functional"}, "[8]": {"system": "Staphylococcus aureus", "experiment": "Antimicrobial activity against Staphylococcus aureus ATCC 6538P assessed as growth inhibition by agar dilution-streak method", "format": "functional"}, "[9]": {"system": "Klebsiella pneumoniae", "experiment": "Antimicrobial activity against Klebsiella pneumoniae ATCC 8045 assessed as growth inhibition by agar dilution-streak method", "format": "functional"}, "[10]": {"system": "Serratia marcescens", "experiment": "Antimicrobial activity against Serratia marcescens ATCC 4003 assessed as growth inhibition by agar dilution-streak method", "format": "functional"}, "[11]": {"system": "Salmonella typhi", "experiment": "Antimicrobial activity against Salmonella typhi ATCC 9992 assessed as growth inhibition by agar dilution-streak method", "format": "functional, Salmonella enterica subsp. enterica serovar Typhi", "conditions": "Salmonella enterica"}},
  "data": [
    {"smiles": "CCn1cc(C(=O)O)c(=O)c2cc3c(cc21)OCO3", "note": "[OXOLINIC ACID]", "values": [
      {"measurement": "MIC", "setting": "[1]", "value": 12.5, "unit": "mg/L"},
      {"measurement": "MIC", "setting": "[2]", "value": 0.4, "unit": "mg/L"},
      {"measurement": "MIC", "setting": "[3]", "value": "> 0.05", "unit": "mg/L"},
      {"measurement": "MIC", "setting": "[4]", "value": 0.78, "unit": "mg/L"},
      {"measurement": "MIC", "setting": "[5]", "value": 0.1, "unit": "mg/L"},
      {"measurement": "MIC", "setting": "[6]", "value": 0.2, "unit": "mg/L"},
      {"measurement": "MIC", "setting": "[7]", "value": 25, "unit": "mg/L"},
      {"measurement": "MIC", "setting": "[8]", "value": 0.78, "unit": "mg/L"},
      {"measurement": "MIC", "setting": "[9]", "value": "> 0.05", "unit": "mg/L"},
      {"measurement": "MIC", "setting": "[10]", "value": 0.1, "unit": "mg/L"},
      {"measurement": "MIC", "setting": "[11]", "value": 0.2, "unit": "mg/L"}
    ]},
    {"smiles": "CCn1cc(C(=O)O)c(=O)c2c3c(ccc21)OCO3", "values": [
      {"measurement": "MIC", "setting": "[1]", "value": "> 100", "unit": "mg/L"},
      {"measurement": "MIC", "setting": "[2]", "value": "> 100", "unit": "mg/L"},
      {"measurement": "MIC", "setting": "[3]", "value": 100, "unit": "mg/L"},
      {"measurement": "MIC", "setting": "[4]", "value": "> 100", "unit": "mg/L"},
      {"measurement": "MIC", "setting": "[5]", "value": "> 100", "unit": "mg/L"},
      {"measurement": "MIC", "setting": "[6]", "value": "> 100", "unit": "mg/L"},
      {"measurement": "MIC", "setting": "[7]", "value": "> 100", "unit": "mg/L"},
      {"measurement": "MIC", "setting": "[8]", "value": "> 100", "unit": "mg/L"},
      {"measurement": "MIC", "setting": "[9]", "value": 25, "unit": "mg/L"},
      {"measurement": "MIC", "setting": "[10]", "value": "> 100", "unit": "mg/L"},
      {"measurement": "MIC", "setting": "[11]", "value": "> 100", "unit": "mg/L"}
    ]},
    {"smiles": "CCn1cc(C(=O)O)c(=O)c2ccc3c(c21)OCO3", "values": [
      {"measurement": "MIC", "setting": "[1]", "value": "> 100", "unit": "mg/L"},
      {"measurement": "MIC", "setting": "[2]", "value": 6.25, "unit": "mg/L"},
      {"measurement": "MIC", "setting": "[3]", "value": 3.13, "unit": "mg/L"},
      {"measurement": "MIC", "setting": "[4]", "value": 50, "unit": "mg/L"},
      {"measurement": "MIC", "setting": "[5]", "value": 6.25, "unit": "mg/L"},
      {"measurement": "MIC", "setting": "[6]", "value": 3.13, "unit": "mg/L"},
      {"measurement": "MIC", "setting": "[7]", "value": "> 100", "unit": "mg/L"},
      {"measurement": "MIC", "setting": "[8]", "value": 25, "unit": "mg/L"},
      {"measurement": "MIC", "setting": "[9]", "value": 1.56, "unit": "mg/L"},
      {"measurement": "MIC", "setting": "[10]", "value": 3.13, "unit": "mg/L"},
      {"measurement": "MIC", "setting": "[11]", "value": 12.5, "unit": "mg/L"}
    ]}
  ]
}
